Measured values reported in patent US20100143960A1, “CYANINE DERIVATIVES, FLUORESCENT CONJUGATES CONTAINING SAME AND USE THEREOF” (CIS BIO INTERNATIONAL, priority 2007, published 2010).

Tests used:
[1] = Comparison of quantum yields / fluorescence spectrum of cyanine derivatives carrying phosphonate groups; type: physicochemical
Method: Fluorescence spectrum: Measurement on a Perkin-Elmer LS50 device, the samples were diluted in phosphate buffer 0.1M pH 7 containing 0.1% BSA (maximum absorbance=0.04 at the excitation wavelength). Excitation: 600 nm (10 nm). Emission (max)=670.5 nm (quantum yield=13%).
The phosphate/phosphonate ester functional groups of the cyanine derivatives according to the invention are hydrolyzed in the cell by cell enzymes to give phosphate/phosphonate functional groups. The quantum yields of the cyanine derivatives carrying phosphonate groups, thus corresponding to the compounds according to the invention as present in the cell after hydrolysis of the ester functional groups, were measured in order to determine if the position of the phosphate/phosphonate ester groups influences the photophysical properties of the compounds.

[2] = tested on: stable CHO line expressing SnapTag in the nucleus; assay: Test of cell permeability of benzylguanine conjugates (fluorescence microscopy); type: cell-based; details: 5 μM in culture medium, one hour contact, washing, additional hour, microscopic analysis, FIG. 1
Method: The cells used result from a stable CHO line expressing SnapTag in the nucleus by virtue of the NLS sequence. The compounds are added to the culture medium (DMEM medium supplemented with 10% of inactivated SVF, 30 min at 60° C.) at a concentration of 5 μM and left in contact with the cells for one hour. After the incubation, three washing operations are carried out with culture medium. An additional hour of incubation solely in the medium is carried out in order to make possible the labeling of the SnapTag by the substrate. Staining of the […] is subsequently carried out with DAPI before the microscopic analysis.
The above images are represented in FIG. 1.

[3] = tested on: fusion protein GST-ST26-Flag in CHO-K1 cells; assay: Labeling of an intracellular protein in intact living cells, detected by HTRF measurement; type: cell-based; details: 5 μM substrate, 3 h at 20° C.
Text: This example is targeted at showing that the compounds according to the invention comprising a phosphonate ester and conjugated to a substrate (benzylguanine, BG) for a “snaptag” suicide enzyme (ST26) are capable of passing through the cell membrane and of labeling a fusion protein expressed by the cell and comprising the snaptag enzyme ([…]), in contrast to the use of a cyanine not comprising phosphonate esters (DY-647).
The HTRF technique is used to test the intracellular labeling of a protein by the cyanine derivatives according to the invention, on living cells, using the recombinant protein GST-ST26-Flag produced by the cells and labeled indirectly via an anti-GST antibody conjugated with a europium trisbipyridine cryptate (anti-GST-EuTBP).
After culturing, CHO-K1 cells are transfected in the presence of lipofectamine 2000 (0.8 μl per 50 μl of transfection solution, Lipofectamine™ Transfection Reagent, Invitrogen Inc., Carlsbad, Calif.) at the rate of 50 000 cells per well in a black 96-well microplate. The transfected cells are subsequently incubated for 24 h at 37° C., 5% CO2. […]
The fluorescence at 665 nm is measured on an HTRF reader (RUBYstar, BMG Labtechnologies). […]

[4] = aqueous medium, nonsulfonated; cited from earlier work
[5] = in solution; cited from earlier work
[6] = phosphate buffer 0.1M pH 7 containing 0.1% BSA, excitation 600 nm

With “2-{(1E,3E,5E)-5-[3-(5-Carboxypentyl)-3-methyl-4-ethyl-5-phosphono-1,3-dihydro-2H-indol-2-ylidene]penta-1,3-dienyl}-5-phosphono-3,3-dimethyl-1-(4-ethyl)-3H-indolium [compound 19]” the “Emission (max)” value [1, 6] was 670.5 nm, the quantum yield [1, 6] was 13% and the “Wavelength of max. absorption” value ([1]; phosphonate (hydrolyzed) form) was 649 nm. For the same molecule, the “Wavelength of max. emission” value ([1]; phosphonate (hydrolyzed) form) was 670 nm and the quantum yield ([1]; phosphonate (hydrolyzed) form) was 13%.
With `CCN1/C(=C/C=C/C=C/C2=[N+](CC)c3ccc(S(=O)(=O)[O-])cc3C2(C)C)C(C)(CCCC(=O)NCc2ccc(COc3nc(N)nc4[nH]cnc34)cc2)c2cc(S(=O)(=O)O)ccc21` (stereo not shown) [BG-DY647] the “passage through the plasma membrane of the cells (intracellular fluorescence)” value [2] was “have not passed through the plasma membrane”, the “percentage of intracellular labeling (signal at 665 nm passive labeling / total labeling)” value ([3]; CHO-K1, HTRF with anti-GST-EuTBP, FIG. 2) was “penetrates poorly into cells” and the “passes through the cell membrane and labels an intracellular protein” value ([3]; intact CHO-K1 cells) was “not the case”.
For `CN1C(=CC=C2CCCC(C=CC3=[N+](C)c4ccccc4C3(C)C)=C2Cl)C(C)(C)c2ccccc21.[O-][Cl+3]([O-])([O-])[O-]` [IR-786], the solubility [4] is given as “less than 10 μM”.
For `CC1(C)C(/C=C/C=C/C=C/C=C2\N(CCCCS(=O)(=O)O)c3ccc4ccccc4c3C2(C)C)=[N+](CCCCS(=O)(=O)[O-])c2ccc3ccccc3c21` [indocyanine green], the “concentration above which quantum yield falls due to formation of aggregates” value [5] is given as “greater than 125 μM”.
